Assay results published in patent publication US9986723B2, “Screen and use of therapeutics for pancreatic ductal adenocarcinoma” (The Board of Regents of the University of Texas System, priority 2014, dated 2018).

How the values were obtained:
Pan02 tumors = assay: Low dose warfarin in drinking water, syngenic orthotopic model; assay type: in vivo, mouse; details: warfarin 0.5 mg/L drinking water
Procedure: (§1) (FIG. 23A) Primary tumor burden after therapy with warfarin. Therapy was initiated when implanted tumors were visible by ultrasound (˜10 mm^3) and consisted of control (normal drinking water) or warfarin, administered in the drinking water at 0.5 mg/L (immunocompetent mice: Pan02 (n=4, control; 3, warfarin), KIC (n=10, control; 8, warfarin)) or 1 mg/L (Panc-1 (n=10, control; 8, warfarin), AsPC-1 (n=8, control; 6, warfarin), Capan-1 (n=10, control; 7, warfarin)) and continued for 2-4 weeks until control mice were moribund. Therapy in KIC mice was initiated at 3 weeks of age and continued for 4 weeks. (FIG. 23B) Metastases were determined grossly upon sacrifice and confirmed by histological evaluation of the liver. […] Incidence of metastasis is also indicated. […] Tumor volume determined by serial ultrasound. […] Therapy with mAb 10C9 (250 μg 2×/week) was initiated when tumors were established as above and persisted for 4 weeks. […] Error bars indicate s.e.m.
Animal studies. […] Mice with established tumors, as determined by sonography were randomized to receive normal drinking water or water containing 1 mg/L (˜3.0 μM) warfarin for experiments in immunocompromised mice and 0.5 mg/L (˜1.5 μM) in experiments in immunocompetent animals with or without gemcitabine 25 mg/kg twice weekly depending on experimental design.

Panc-1 tumors = assay: Low dose warfarin in drinking water, orthotopic human tumor xenograft; assay type: in vivo, mouse
Procedure: as §1
(FIG. 24A) HEK293 cells engineered to stably express recombinant Gas6 were grown in the presence of Vitamin K or Vitamin K+warfarin. Gas6 levels and γ-carboxylation were assayed by immunoblotting conditioned media. Conditioned media from untransfected HEK293 cells was used as a negative control. (FIG. 24B) Panc1 cells were grown overnight in media with 1% serum with no additions (NT), warfarin (2 μM) or BGB324 (2 μM). Lysates were probed for total Axl (tAxl) and phosphorylated Axl (pAxl). (FIG. 24C) Panc1 cells were grown in the presence of control media, Vitamin K, warfarin or warfarin+Vitamin K. The level of phosphorylated Axl (pAXL, red) was determined by immunofluorescence. (FIG. 24D) Panc1 cells were grown overnight in media with 1% serum with no additions (control), warfarin (1 μM), Gas6 (1.3 nM) or Gas6+warfarin. Lysates were probed for phosphorylated Akt (pAkt) and actin. (FIG. 24E) Lysates from Panc1 tumors harvested from mice treated with control or warfarin were probed for expression of tAxl, pAxl, actin, pAKT, tAKT, and cleaved Parp. (FIG. 24F) The effect of warfarin on cell migration was assessed by a ‘scratch’ assay. Monolayers of the indicted cells were wounded with a pipet tip. The cells were incubated in media containing 2% serum+/−warfarin (2 μM) or media containing 2% serum+Gas6 (1.3 nM)+/−warfarin.
FIGS. 26A-C. […] (FIG. 26A) the expression level of pAxl, Zeb1 and nuclear β-catenin in Panc1 cells in vitro was measured by immunofluorescence under normal culture conditions or after growth on collagen matrix and treatment with TGF-β (20 ng/ml) to induce epithelial to mesenchymal transition, with or without warfarin (2 μM). p-Axl was normalized to total Axl area. (FIG. 26B) Panc1 cells were treated with either SFM, recombinant Gas 6 (100 ng/ml) or Gas6 following pretreatment with 10C9 (mAb anti-Axl). Transition to a mesenchymal phenotype was characterized by changes in vimentin and nuclear Zeb1 expression determined by immunofluoresence. […] (FIG. 26C) Paraffin embedded sections of Panc-1 tumors were analyzed by immunofluorescence for markers of EMT.

[1] = test system: orthotopic C5LM2 or Mia PaCa-2 tumors; assay: Gemcitabine combinations in mice bearing established orthotopic tumors; assay type: in vivo, mouse; details: combined with gemcitabine
From the text: Animal studies. All animals were housed in a pathogen-free facility with 24-hour access to food and water. Experiments were approved by, and conducted in accordance with, an IACUC approved protocol at UT Southwestern. LSL-Kras^G12D; Cdkn2a^lox/lox; p48^Cre (KIC) mice were generated as previously described (Ostapoff et al., 2014). Four- to 6-week-old female NOD/SCID and C57/B16 mice were obtained from an on campus supplier. A total of 1×10^6 AsPc-1, Panc-1, Mia Paca2, Capan-1, C5LM2, Mia shLuc and Mia shAxl or 5×10^5 Pan02 cells, were injected orthotopically as described (Ostapoff et al., 2014). Mice with established tumors, as determined by sonography were randomized to receive normal drinking water or water containing 1 mg/L (˜3.0 μM) warfarin for experiments in immunocompromised mice and 0.5 mg/L (˜1.5 μM) in experiments in immunocompetent animals with or without gemcitabine 25 mg/kg twice weekly depending on experimental design.

Capan-EMT cells = Capan-EMT cells (Capan-1 on collagen with TGFβ), ICC; assay type: cell-based, human; details: SFM overnight
Procedure: FIGS. 32A-C. Acquisition of Axl expression sensitizes Capan-EMT cells to warfarin. (FIG. 32A) Capan-1 cells cultured on collagen were analyzed by flow cytometry for Axl expression. The positive gate was set using a control IgG and 10C9 was used to detect Axl. […] (FIG. 32B) Capan-EMT cells were cultured in SFM overnight in the absence (control) or presence of warfarin and expression Axl, E-Cadherin, and cleaved caspase 3 was determined by ICC. Representative images are shown. (FIG. 32C) The expression Zeb1, Snail, and Twist was determined by qPCR in Capan-1 and Capan-EMT cells.
In vitro epithelial to mesenchymal transition assays. In vitro, mesenchymal transition was induced by incubating cells on chamber slides coated with collagen and adding TGF-β (20 ng/ml) to media with 5% serum for 48 hours. Media was then replaced with 1% serum and fresh TGF-β with or without warfarin (2 μM) for an additional 48 hours. Cells were the evaluated by immunocytochemistry by fixing in acetone, permeabilizing with 0.5% Brij, and incubating overnight with primary antibody: Axl, p-Axl, (R&D Systems); Vimentin (phosphoSolutions); Zeb1, E-Cadherin, and β-Catenin (Santa Cruz). The effect of Gas6 signaling on EMT was evaluated by seeding cells overnight and incubating with Gas6 (100 ng/ml) with or without warfarin for 48 hours. Cells were evaluated by ICC as described.

[2] = target: vitamin K epoxide reductase (Homo sapiens, UniProt Q9BQB6); details: cited from earlier work
[3] = tumor lysates, low dose warfarin
[4] = tumor sections, low dose warfarin

Sequence of vitamin K epoxide reductase (Q9BQB6 whole entry): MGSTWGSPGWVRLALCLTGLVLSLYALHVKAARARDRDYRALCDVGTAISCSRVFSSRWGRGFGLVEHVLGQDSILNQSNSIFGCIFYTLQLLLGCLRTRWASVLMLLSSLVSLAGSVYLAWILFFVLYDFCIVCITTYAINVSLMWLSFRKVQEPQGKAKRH

## CC(=O)CC(c1ccccc1)c1c(O)c2ccccc2oc1=O (racemic) [Warfarin]
Pan02 tumors
  primary tumor growth: reduced primary tumor growth
Panc-1 tumors; Endomucin, low dose warfarin
  intratumoral microvessel density: reduced
Panc-1 tumors; immunofluorescence, low dose warfarin
  expression of vimentin and E-cadherin in tumors: reduced expression of vimentin and elevated the expression of E-cadherin
Panc-1 tumors; [3]
  level of cleaved Parp: increased
  level of pAxl and pAkt in tumors: substantially suppressed
Panc-1 tumors; [4]
  cleaved caspase 3 and tumor necrosis: elevated
  expression of phosphorylated histone H3 (proliferation): decreased
Panc-1 tumors; warfarin 1 mg/L drinking water
  primary tumor growth: little effect
[1]
  augmentation of gemcitabine reduction of primary tumor growth and metastatic control: augmented gemcitabine reduction of primary tumor growth
Capan-EMT cells
  sensitivity to warfarin (Axl, E-cadherin, cleaved caspase-3): sensitive
[2]
  duration of action of a single dose: 2 to 5 days
